In ChEMBL document CHEMBL3817801, “Synthesis and steroid sulfatase inhibitory activities of N-phosphorylated 3-(4-aminophenyl)-coumarin-7-O-sulfamates” (Medchemcomm, 2016) one finds IC50 data, which are given here for 10 compounds.

SMILES strings stand for the structures.

The experiment concerns the target T1, Steryl-sulfatase (Homo sapiens, UniProt P08842).
T1 sequence (P08842 whole entry): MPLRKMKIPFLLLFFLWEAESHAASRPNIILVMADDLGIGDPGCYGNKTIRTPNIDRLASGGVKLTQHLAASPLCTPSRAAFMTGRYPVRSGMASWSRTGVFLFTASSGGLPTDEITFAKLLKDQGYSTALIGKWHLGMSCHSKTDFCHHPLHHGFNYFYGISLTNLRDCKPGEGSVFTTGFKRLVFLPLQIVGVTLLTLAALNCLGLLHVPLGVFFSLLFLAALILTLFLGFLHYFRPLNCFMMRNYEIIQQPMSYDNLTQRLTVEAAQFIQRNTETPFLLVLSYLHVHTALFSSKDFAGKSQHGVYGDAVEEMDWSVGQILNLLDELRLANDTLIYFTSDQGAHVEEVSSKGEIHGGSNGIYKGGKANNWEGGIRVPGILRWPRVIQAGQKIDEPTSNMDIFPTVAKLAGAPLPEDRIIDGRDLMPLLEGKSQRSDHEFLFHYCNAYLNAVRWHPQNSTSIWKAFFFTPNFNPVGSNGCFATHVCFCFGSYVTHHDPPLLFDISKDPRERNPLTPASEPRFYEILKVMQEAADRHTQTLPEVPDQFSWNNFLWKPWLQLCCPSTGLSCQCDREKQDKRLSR
Put plainly: Inhibition of human placental steroid sulfatase using p-nitrophenyl sulfate as substrate after 15 mins by microplate reader method.
As for `CC1(C)COP(=O)(Nc2ccc(-c3cc4ccc(OS(N)(=O)=O)cc4oc3=O)cc2)OC1`, the IC50 (commonly the concentration that gives 50% inhibition) is 450 nM.
With `CCCCOP(=O)(Nc1ccc(-c2cc3ccc(OS(N)(=O)=O)cc3oc2=O)cc1)OCCCC` the figure was 310 nM; with `NS(=O)(=O)Oc1ccc2cc(-c3ccc(NP(=O)(Oc4ccccc4)Oc4ccccc4)cc3)c(=O)oc2c1`, 190 nM; with `NS(=O)(=O)Oc1ccc2cc(-c3ccc(NP4(=O)OCCCO4)cc3)c(=O)oc2c1`, 700 nM.
Under `NS(=O)(=O)Oc1ccc2cc(-c3ccc(NP(=O)(OCc4ccccc4)OCc4ccccc4)cc3)c(=O)oc2c1` stands 240 nM.
With `CC(C)OP(=O)(Nc1ccc(-c2cc3ccc(OS(N)(=O)=O)cc3oc2=O)cc1)OC(C)C` the figure was 470 nM; with `CCOP(=O)(Nc1ccc(-c2cc3ccc(OS(N)(=O)=O)cc3oc2=O)cc1)OCC`, 510 nM; with `COP(=O)(Nc1ccc(-c2cc3ccc(OS(N)(=O)=O)cc3oc2=O)cc1)OC`, 780 nM.
`NS(=O)(=O)Oc1ccc2ccc(=O)oc2c1`: the IC50 was 1380 nM. This IC50 is about 1.8-fold higher than that of the compound before.
Under `Cc1cc(=O)oc2cc(OS(N)(=O)=O)ccc12` stands 1030 nM.
